# “Also recorded” adds a separate entry of the source. Numbered stars: 1 amine (or outer) side, 2 acyl side, 3 side chain; on linkers, the order of the positions; unused ones are H or OH. Bridge positions count the residues as written; N and C are the ends. Square brackets hold non-standard residues; d marks the D form. Ends that are not written are not given here. GlyBU(C4) = Gly building unit (N-alpha-functionalized Gly) carrying a C4 alkyl chain (n = m = 4), bridged through a urea group; CO = O=C([*:1])[*:2]
# What was measured:
# Lovo cancer cell-line = test: Wound-scratch migration assay, Lovo cell monolayers; assay type: cell-based; details: AYPGKF activated, 24 hr, 150 μM and 300 μM, FIG. 8D-8K
# Procedure: HEK293 cells were transiently transfected with flg-Par4 followed by AYPGKF PAR4 activation in the presence and absence of PAR4c (4-4) within the range of 50 nM-150 μM. IP of cell lysates following different periods of activation was carried out using anti flg abs. Detection of Akt was performed by anti Akt abs. β-actin serves as a control gene for loading. […] Matrigel invasion before and after AYPGKF PAR4 activation and in the presence and absence of PAR4 c(4-4) inhibitor in the activated PAR4 cells. A range between 50 nM-150 μM PAR4 c(4-4) inhibitor was applied. While ample Matrigel invasion is seen following PAR4 activation, this was attenuated in the presence of the inhibitor in all the concentrations used, similar to control prior to PAR4 activation. FIG. 8C—Histograms represent quantification of the cells/HPF invaded the Matrigel layer. Unpaired Student's t test was used. This experiment is a representative of three independent experiments performed in triplicates. FIG. 8D-8K show Wound-scratch migration assay. Lovo cancer cell-line was grown to confluence. Then, an equal wound scratch was introduced to Lovo cell monolayers. Monolayers were serum starved overnight and PAR4 was activated or not with AYPGKF. One hour prior to activation PAR4 c(4-4), either at 150 μM or 300 μM concentrations was added to the monolayers.
# Migration was evaluated by “wound scratch assay” applied. […]
# RKO/hPar4 cells = test: Xenograft tumor model, RKO/hPar4 clone inoculated subcutaneously in nude mice; assay type: in vivo; details: for tumor growth / tumor size: RKO/hPar4 in nude mice, s.c. at tumor site, 100 μM, 0.25 mg/30 gm, 3 times/week, from day of inoculation or 4 days later, 32 days
# Procedure: FIG. 9A. A clone of RKO/PAR4 overexpressing cells (1×10^6) were injected subcutaneously into nude mice. PAR4 c(4-4) (100 μM; 0.25 mg/30 gm) was subcutaneously injected, at the site of the tumor either at the same day of RKO/PAR4 clone inoculation or 4 days later. The inhibitor was applied repeatedly 3 times/week for 3 weeks. Mice were weighted every 3 days and tumor size was measured. Mice were sacrificed after 32 days. […] Tumors were weighed and measured for size at the indicated time points and tumor volume was calculated05. FIG. 9C. qPCR of a representative RKO stable clone of PAR4. Error bars show s.d.; *** P<0.001. FIG. 9D. IHC of RKO/PAR4 derived tumors. Immunohistochemistry of RKO compared to small tumors in the presence of PAR4 c(4-4) inhibitor. Levels of proliferation in the large and small tumors were indicated by applying anti ki67 abs (FIG. 9Da and 9Db). For apoptosis, application of active caspase-3 Abs were applied (FIG. 9Dc and 9Dd). […] FIG. 9E. Histograms representing positive IHC in each treatment group. […] Hematoxilyn & eosin staining of large (left panel) and small (right panel) tumors distinctly indicate to the appearance of a wide basement membrane in the small tumors whereas a thinner and cell-invaded basement membrane is observed in large tumors.
# We have generated stable clones overexpressing PAR4 in RKO cells, a non-aggressive colon cancer cell line (expressing wt p53), by infecting the cells with HA-hPar4 virus. This was followed by selection using Geneticin G418 resistance (500 μg/ml) to produce RKO/hPar4 clones. Clone efficiency generation was evaluated using qPCR analyses.
# (§1) Male athymic nude mice aged 6-7 weeks were pre-implanted subcutaneously with the relevant cells (1×10^6 cells): either with HCT-116 or with RKO/hPar4 cells.
# The inhibitor was injected at the site of the tumor at the day of inoculation. In an additional group, mice implanted with HCT-116 were administered with the inhibitor at day 4 after inoculation. The inhibitor ([…]) was applied repeatedly 3 times/week to all mice after the first administration of the inhibitor.
# Mice were monitored for tumor size by external caliber measurements (length and width) on days 7, 14, 22 and for up to 32 days, if tumor burden allowed. Tumor volume (V) was calculated by V=L×W^2×0.5, where L is length and W is width. At the end of the experiment, mice were euthanized and tumors were removed, weighed and fixed in formalin for histology. All mice survived to the end of the experiment. All animal experiments were approved by the animal committee of the Hebrew University (MD-19-15924). In fact, for the xenograft tumor formation we have utilized two types of cell lines; the HCT116 cells, an aggressive colon cancer cell line, overexpressing oncogenes among of which is also PAR4, (FIGS. 10A and 10B) and clone/s overexpressing Par4, generated in RKO cell line; RKO/hPar4 cells (FIG. 9A-9C). HCT116 (1×10^6) and RKO/hPar4 (1×10^6) clone/s were inoculated subcutaneously in nude mice. The Pc(4-4) cyclic peptide was injected at the site of the tumor (100 μM; 0.25 mg/30 gram mouse), either at the time of tumor cell injection or 4 days after tumor-cell implantation. The Pc(4-4) cyclic peptide was applied repeatedly 3 times/week. The HCT116 cell inoculation generated large tumors and were terminated after 20 days, whereas the RKO/Par4 inoculation developed tumors on a slower pace and were terminated after 32 days. […] The powerful inhibition of tumor growth was seen regardless of whether the Pc(4-4) cyclic peptide was applied at the same time of tumor inoculation or applied 4 days later. This was obtained irrespective of using an aggressive colon cancer cell line or stable RKO/hPar4 clone/s, overexpressing PAR4 (FIGS. 9A and 9B).
# HCT116 cells = test: Xenograft tumor model, HCT116 cells inoculated subcutaneously in nude mice; assay type: in vivo; details: s.c., 100 μM, 0.25 mg/30 gm, 3 times/week, from day of inoculation or 4 days later, terminated after 20 days
# Procedure: HCT116 cells (1×10^6) were injected subcutaneously to nude mice. Pc(4-4) (100 μM; 0.25 mg/30 gm) was subcutaneously injected, either at the same day of tumor cell inoculation or 4 days later. The inhibitor was applied repeatedly 3 times/week for 3 weeks. Mice were weighted every 3 days and tumor size was measured. Mice were sacrificed after 21 days. This is a representative of three times performed experiments. […] Tumor volume measurements of HCT116 cells inoculated into nude mice. Tumors were weighed and measured for size at the indicated time points and tumor volume was calculated. Error bars show s.d.; * P<0.05; *** P<0.001; while ns are considered as not significant.
# Another cell lines used in the experiment was HCT-116, an aggressive colon cancer cell line overexpressing oncogenes including PAR4.
# as §1
# The inhibitor was injected at the site of the tumor at the day of inoculation. In an additional group, mice implanted with HCT-116 were administered with the inhibitor at day 4 after inoculation. […]
# Mice were monitored for tumor size by external caliber measurements (length and width) on days 7, 14, 22 and for up to 32 days, if tumor burden allowed. Tumor volume (V) was calculated by V=L×W^2×0.5, where L is length and W is width. […]
# [1] = RKO/PAR4 derived small tumors generated in the presence of the inhibitor vs large tumors
substance,measurement,setting,value
"Pc(4-4): backbone cyclic analog of Formula I, m=n=4, ring size 30 atoms (S[GlyBU(C4)]EFRDK[GlyBU(C4)]; bridge 2-8 via CO; not fully specified; printed as SZ1EFRDKX3)",inhibition of migration/proliferation (wound scratch),Lovo cancer cell-line,marked inhibition
same,inhibition of migration/proliferation (wound scratch),Lovo cancer cell-line; listed as PAR4 c(4-4),inhibits
same,apoptosis in tumors (active caspase-3 IHC),RKO/hPar4 cells; [1],induced levels of active caspase-3
same,proliferation in tumors (ki67 IHC),RKO/hPar4 cells; [1],little
same,apoptosis in tumors (active caspase-3 IHC),"RKO/hPar4 cells; RKO/PAR4 derived small tumors generated in the presence of the inhibitor vs large tumors, listed as PAR4 c(4-4)",high levels of active caspase-3
same,difference between treatment started at the day of inoculation or 4 days after inoculation,RKO/hPar4 cells; RKO/Par4 stable clones in nude mice,no statistical difference
same,tumor growth / tumor size,RKO/hPar4 cells,significantly smaller tumors
same,tumor growth / tumor size,RKO/hPar4 cells; listed as PAR4 c(4-4),potently inhibits
same,tumor growth / tumor size,RKO/hPar4 cells; listed as PAR(4-4),markedly small tumors
same,tumor growth / tumor size,HCT116 cells,significantly smaller tumors; also recorded: potently inhibits
same,tumor growth / tumor size,HCT116 cells; listed as PAR4 (4-4),much smaller tumors

# Source: patent US20230331781A1, “PAR4 DERIVED PEPTIDES, ANALOGS AND USES THEREOF” (Yissum Research Development Company of the Hebrew …, priority 2019, published 2023)
